Assay results reported in US20160295854A1, “COMPOSITION AND METHOD FOR EX-VIVO IMMUNOMODULATION AND/OR PRESERVATION OF ORGANS, METHODS AND USE” (UNIAO BRASILEIRA DE EDUCACAO E ASSISTENCIA , MANTENEDORA DA …, priority 2014, published 2016).

How the values were obtained:
STAT3 = experiment: p-STAT3 intracellular marking in BMDCs; format: cell-based, mice (Mus musculus); conditions: BMDCs, 30 μM inhibitor previous to Hsp70
Experimental: As positive control, the cells were stimulated with […] of phorbol myristate acetate (PMA) for 30 minutes. After the stimuli in the periods mentioned, the cells were fixed with Cytofix Buffer (BD Biosciences) for 10 minutes at 37° C. and permeated with Phosflow Perm Buffer III (BD Biosciences) for 30 minutes on ice. After such procedures, the cells were marked for p-ERK1/2 and p-STAT3.
For analyzing the recipients T cells, the cells were marked for CD4 (GK1.5), CD8a (53-6.7), Foxp3 (MF23), Ki67 (B56) achieved from BD Biosciences. […] The levels of phosphorylated ERK and STAT3 were determined using antibodies for p-ERK1/2 and p-STAT3 (BD Biosciences) in BMDCs previously fixed and permeablized. The cells were subsequently analyzed in the flow cytometer FACSCanto II (BD Biosciences) with the BD FACSDiva (BD Biosciences) program. The data achieved were analyzed with the Flowjo program (version 7.6.5, Tree Star).
The p-ERK expression was measured by flow cytometry. […] The p-STAT3 expression was measured by flow cytometry. […] After that, the IL-10 mRNA levels were measured by Real-time PCR and the concentration of this cytokine by flow cytometry, using the kit CBA Mouse Inflammation. […] After that, the MARCH-I mRNA levels were analyzed by Real-time PCR. […]

splenocytes = experiment: Epitopes mapping of T cells (splenocytes re-stimulated in vitro); format: cell-based, BALB/c mice; conditions: 5 μg/ml peptide or 60 μg/ml Hsp70, 24 h; for CD4+Foxp3+ (Tregs) cells percentage (FIG. 16 A): compared with DMSO
[1] = test system: cutaneous allograft (B6 donor skin in BALB/c recipients); experiment: Murine model of cutaneous allograft, graft immersion-treatment; format: in vivo, mice (Mus musculus)
Text: A method for treating grafts, including allografts, was developed by the inventors of the present invention. Thus, the method treats the grafts (that may be full organs) instead of recipient that will receive the graft, using as tool a classic murine model of skin transplantation and well established. Such method, to the light of the inventors, may be considered as new and inventive. The said model consists of a complete incompatibility of MHC molecules and was described by BILLINGHAM & MEDAWAR (1951).
BALB/c recipients, which express the MHC II I-A^d molecule, are anaesthetized and the dorsal stem hairs are removed. In the waxed area, 1 cm^2 of the skin was removed in each recipient mouse and the donor tail skin was sutured in the exposed area. The animals are maintained in individual cages and daily monitored. The graft rejection is confirmed by observing the cyanosis, erythema, erosion and cutaneous graft loss.
This model consists of a complete incompatibility of MHC molecules and was described by BILLINGHAM & MEDAWAR (1951). In this model, the donor mouse B6, which expresses the MHC II I-A^b molecule, is sacrificed. […] After this period, the grafts were sutured in the BALB/c recipients' back, who express the MHC II I-A^d molecule, and the rejection clinical progression is daily monitored.
After that, the grafts were sutured in the BALB/c (I-Ad) animals' back. The animals were daily monitored. ***, p<0.0001. n=22-24 mice per group. The results achieved putting the seven independent experiments together.
After this, these grafts were sutured in BALB/c recipients WT and their rejection were daily monitored.
After this, the grafts were sutured in the BALB/c (I-Ad) animals' back. The animals were daily monitored. *, p<0.05. n=4 mice per group.

MARCH-I = MARCH-I mRNA in DCs by real time PCR; format: cell-based, mice (Mus musculus); conditions: DCs from IL-10 knockout animals, 24 h; compared with DCs WT
Experimental: The supernatants were collected and used for analyzing cytokine. The cells were further treated with 20 ng/ml of Rapamycin (Cell Signaling), 1 μg/ml of Cyclosporine A (Roche) or 20 ng/ml of IL-10 recombinant murine (R&D System) for 24 h and the total RNA was removed.
The total RNA was isolated from the DCs treated using the kit RNAeasy (Qiagen), according to the manufacturer instructions. The total purified RNA concentration was determined with the kit Qubit® RNA Assay Kit (Invitrogen), read in the Qubit® Fluorometer (Invitrogen). 50 ng of the RNA had reverse transcriptase with 100 U of Sensiscript (Qiagen). DNA concentrations were determined with the kit Qubit® dsDNA HS Assay (Invitrogen), read in the Qubit® Fluorometer (Invitrogen). In a final volume of 10 μL, 8 ng of cDNA were applied using some assays Taqman® Gene Expression (Applied Biosystems): IL10 (Mm00439614_m1), March1 (Mm00613524_m1) and β-actin (4352933E), according to the manufacturer recommendations.
The quantitative real time PCR was performed in the instrument StepOne™ Real-Time PCR System (Applied Biosystems). The relative levels of mRNA were calculated according to the comparative method of Ct, described by […] & LIVAK (2008). The β-actin constituent gene was used as setter. Non-treated DCs served as reference for OVA or Hsp70-treated DCs.
After that, IL-10 mRNA levels were analyzed by Real-time PCR. The β-actin was used as a setter. The IL-10 concentration was measured in the cultures supernatant by flow cytometry. […] (C) As in A, however the MARCH-I mRNA levels were analyzed by Real-time PCR. […] DCs IL-10 KO were also treated with Recombinant IL-10. All treatments were performed for 24 h and MARCH-I mRNA levels were analyzed by Real-time PCR. […] After this period, grafts were sutured in the BALB/c animals' back and the acceptance was daily monitored. Graphs expressed on average ±SEM. *, p<0.05; **, p<0.01; ***, […]. n=3-5 mice per group. Representative results of 3 independent experiments.
After this period, the MARCH-I expression increase was analyzed by Real-time PCR.

[2] = test system: cutaneous allograft (B6 donor skin in BALB/c recipients); experiment: Cutaneous allograft model, graft immersion followed by topic application; format: in vivo, mice (Mus musculus); conditions: immersion plus 7 days of topic application (group '- 7 days')
Text: That is, animals that received grafts treated with Hsp70 receive the local application of a Hsp70 solution and the same for OVA.
After this, the grafts were sutured in BALB/c (I-A^d) animals' back. […] The animals were daily monitored. (A) Schematic representation of the treatment strategy used in the experiment. (B) Photographic record of the clinical progression of the acute rejection in groups Hsp70 and OVA. […] Data achieved from previous experiments.

COc1cccc(-c2cc(=O)c3ccccc3o2)c1N [PD98059, reference compound]
STAT3 activation against the stimulus with Hsp70 after ERK inhibition (FIG. 13 E) (STAT3): removed the STAT3 activation

KYTAPEISARILMKL (Heat Shock Protein HSP70) [Peptide 5]
CD4+Foxp3+ (Tregs) cells percentage (FIG. 16 A) (splenocytes): increase in the Tregs production

VGGSTRMPAVTDLVK [Peptide 2]
IL-10 production by splenocytes (FIG. 16 B) (splenocytes): small increase | CD4+Foxp3+ (Tregs) cells percentage (FIG. 16 A) (splenocytes): quite significant increase | graft acceptance after immersion with Hsp70 or peptides (FIG. 17) ([1]; 60 μg/ml Hsp70 or 15 μg/ml peptide, 60 minutes at 4° C., compared to OVA peptide and peptide 5): strong tendency in lengthen the graft acceptance

B1: recombinant murine IL-10: IL-10 recombinant murine (R&D System), positive control (protein, UniProt P18893 19-178, looked up)
Interleukin-10: SRGQYSREDNNCTHFPVGQSHMLLELRTAFSQVKTFFQTKDQLDNILLTDSLMQDFKGYLGCQALSEMIQFYLVEVMPQAEKHGPEIKEHLNSLGEKLKTLRMRLRRCHRFLPCENKSKAVEQVKSDFNKLQDQGVYKAMNEFDIFINCIEAYMMIKMKS
MARCH-I mRNA levels in DCs IL-10 KO (FIG. 11 D) (MARCH-I): reestablished partially

B2: OVA: egg albumin (OVA), control protein (protein, UniProt P01012 2-386, looked up)
Ovalbumin: GSIGAASMEFCFDVFKELKVHHANENIFYCPIAIMSALAMVYLGAKDSTRTQINKVVRFDKLPGFGDSIEAQCGTSVNVHSSLRDILNQITKPNDVYSFSLASRLYAEERYPILPEYLQCVKELYRGGLEPINFQTAADQARELINSWVESQTNGIIRNVLQPSSVDSQTAMVLVNAIVFKGLWEKAFKDEDTQAMPFRVTEQESKPVQMMYQIGLFRVASMASEKMKILELPFASGTMSMLVLLPDEVSGLEQLESIINFEKLTEWTSSNVMEERKIKVYLPRMKMEEKYNLTSVLMAMGITDVFSSSANLSGISSAESLKISQAVHAAHAEINEAGREVVGSAEAGVDAASVSEEFRADHPFLFCIKHIATNAVLFFGRCVSP
Survival median [2]: 14.0 days | Survival ([2]; individual mice): 16 days | Survival average ([1]; graft immersed in 60 μg/mL for 60 minutes, seven independent experiments): 14.0 days
